Results from patent US6962912B2, “Substituted pyrazolo[4,3-e]diazepines, pharmaceutical compositions containing them, use as medicinal products and processes for preparing them” (Warner-Lambert LLC, priority 2000, dated 2005).

Columns and labels:
PDE4 = assay: Inhibition of PDE4 (cytosolic enzyme preparation from U937 line), compared with rolipram; assay type: biochemical, human; conditions: PDE4 enzyme preparation obtained from the U937 line
production of TNFα = assay: in vivo TNFα model in Wistar rats (LPS-induced); conditions: oral administration 30 min before i.p. LPS; plasma 90 min after LPS; male Wistar rats
Text: TNFα is a cytokine which plays a central role in the mechanisms of inflammation. Its production can be induced by an injection of lipopolysaccharide (LPS). It has been shown that the increase in intracellular cAMP, produced in particular by PDE4 inhibitors, decreases the production of TNFα in in vitro and in vivo models. It is thus a matter here of quantifying in vivo the anti-inflammatory potential of the compounds of the invention, administered orally (p.o.) by measuring the inhibition of the production of TNFα in the plasma of rats, these rats having received an intraperitoneal (i.p.) injection of lipopolysaccharide (LPS). The treatment with the compounds of the invention or the vehicle are [sic] administered orally to male Wistar rats, 30 min before the injection of LPS. The rats are sacrificed 90 min after the stimulation with LPS, the blood is collected onto EDTA and the TNFα concentration is measured in each plasma sample. […] References • Chen, Y. L., Le Vraux, V., Giroud, J. P. and Chauvelot-Moachon L. (1994). Anti-tumor necrosis factor properties of non-peptide drugs in acute-phase responses. […] Int. J. Immunopharmacol., 16 (10), 805-816. Model of Eosinophilia in Rats

With `CCn1nc(C)c2c1C(=O)NCC(c1ccncc1)=N2` [Example 32, 1-Ethyl-3-methyl-5-pyrid-4-yl-6,7-dihydro-1H-pyrazolo[4,3-e][1,4]diazepin-8-one] the IC50 (PDE4) was 130 nM, the melting point was 148 °C and the “inhibition of the production of TNFα in the plasma of rats” value (shortened to “inhibition of the production of TNFα”) (production of TNFα) was “excellent activity”.
In the case of `CCCCc1nn(CC)c2c1N=C(c1ccccc1)CNC2=O` [Example 34, 3-Butyl-1-ethyl-5-phenyl-6,7-dihydro-1H-pyrazolo[4,3-e][1,4]diazepin-8-one], the IC50 (PDE4) is reported as 4.7 nM, the melting point is reported as 105.4 °C and the “inhibition of the production of TNFα” value (production of TNFα) is reported as “excellent activity”.
For `CCn1nc(C)c2c1C(=NC#N)NCC(c1ccccc1)=N2` [Example 55, 1-Ethyl-3-methyl-5-phenyl-6,7-dihydro-1H-pyrazolo[4,3-e][1,4]diazepin-8-ylidenecyanamide], the IC50 (PDE4) was 1.7 nM, the melting point was 280 °C and the “inhibition of the production of TNFα” value (production of TNFα) was “excellent activity”.
In the case of `CCn1nc(C2CCCCC2)c2c1C(=O)NCC(c1ccncc1)=N2` [Example 73, 3-Cyclohexyl-1-ethyl-5-pyrid-4-yl-6,7-dihydro-1H-pyrazolo-[4,3-e][1,4]diazepin-8-one], the IC50 (PDE4) is reported as 0.73 nM, the melting point is reported as 126 to 127 °C and the “inhibition of the production of TNFα” value (production of TNFα) is reported as “excellent activity”.
